Assay results reported in ChEMBL document CHEMBL1201861, “Genomics of Drug Sensitity in Cancer screening data, Wellcome Trust Sanger Institute”.

How the values were obtained:
Test in all cases: cells
CW-2 = assay type: functional, cell-based, Homo sapiens; details: Homo sapiens, CW-2;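 also: growth inhibition of CW-2 cells, read out by a cell viability assay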
Description: SANGER: Inhibition of human CW-2 cell growth in a cell viability assay.

D-336MG = assay type: functional, cell-based, Homo sapiens; details: Homo sapiens, D-336MG
Description: SANGER: Inhibition of human D-336MG cell growth in a cell viability assay.

DOHH-2 = assay type: functional, cell-based; details: Homo sapiens;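 also: growth inhibition of human DOHH-2 cells, read out with a cell viability assay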
Description: SANGER: Inhibition of human DOHH-2 cell growth in a cell viability assay.

DOK = assay type: functional, cell-based, Homo sapiens; details: Homo sapiens, DOK;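 also: cell viability assay read-out, values reflect inhibition of cell growth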
Description: SANGER: Inhibition of human DOK cell growth in a cell viability assay.

EM-2 = assay type: functional, cell-based; details: Homo sapiens;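 also: growth inhibition of EM-2 cells, read out with a cell viability assay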
Description: SANGER: Inhibition of human EM-2 cell growth in a cell viability assay.

EW-3 = assay type: functional, cell-based; details: Homo sapiens;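 also: cell viability assay read-out, IC50 reflects inhibition of growth of the EW-3 cells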
Description: SANGER: Inhibition of human EW-3 cell growth in a cell viability assay.

FaDu = assay type: functional, cell-based, Homo sapiens; details: Homo sapiens, FaDu;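 also: cell viability readout of growth inhibition in FaDu cells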
Description: SANGER: Inhibition of human FADU cell growth in a cell viability assay.

G-402 = assay type: functional, cell-based, Homo sapiens; details: Homo sapiens, G-402
Description: SANGER: Inhibition of human G-402 cell growth in a cell viability assay.

GT3TKB = assay type: functional, cell-based, Homo sapiens; details: Homo sapiens, GT3TKB;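 also: growth inhibition of the cell line, read out with a cell viability assay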
Description: SANGER: Inhibition of human GT3TKB cell growth in a cell viability assay.

HCC1419 = assay type: functional, cell-based, Homo sapiens; details: Homo sapiens, HCC1419;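 also: growth inhibition of human HCC1419 cells, read out as cell viability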
Description: SANGER: Inhibition of human HCC1419 cell growth in a cell viability assay.

HCC2218 = assay type: functional, cell-based; details: Homo sapiens;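 also: cell viability assay read-out, with IC50 given as the concentration that inhibits growth of the cell line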
Description: SANGER: Inhibition of human HCC2218 cell growth in a cell viability assay.

HCT-116 = assay type: functional, cell-based, Homo sapiens; details: Homo sapiens, HCT-116
Description: SANGER: Inhibition of human HCT-116 cell growth in a cell viability assay.

HEC-1 = assay type: functional, cell-based, Homo sapiens; details: Homo sapiens, HEC-1;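 also: growth inhibition of the cell line, read out with a cell viability assay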
Description: SANGER: Inhibition of human HEC-1 cell growth in a cell viability assay.

HGC-27 = assay type: functional, cell-based, Homo sapiens; details: Homo sapiens, HGC-27;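 also: growth inhibition of human HGC-27 cells, read out in a cell viability assay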
Description: SANGER: Inhibition of human HGC-27 cell growth in a cell viability assay.

HO-1-N-1 = assay type: functional, cell-based, Homo sapiens; details: Homo sapiens, HO-1-N-1;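 also: growth inhibition of human HO-1-N-1 cells, read out with a cell viability assay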
Description: SANGER: Inhibition of human HO-1-N-1 cell growth in a cell viability assay.

HT-3 = assay type: functional, cell-based, Homo sapiens; details: Homo sapiens, HT-3;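 also: growth inhibition measured with a cell viability readout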
Description: SANGER: Inhibition of human HT-3 cell growth in a cell viability assay.

HuP-T3 = assay type: functional, cell-based, Homo sapiens; details: Homo sapiens, HuP-T3;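 also: HuP-T3 cell growth inhibition, read out with a cell viability assay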
Description: SANGER: Inhibition of human HuP-T3 cell growth in a cell viability assay.

KGN = assay type: functional, cell-based, Homo sapiens; details: Homo sapiens, KGN;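 also: growth inhibition of KGN cells, read out with a cell viability assay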
Description: SANGER: Inhibition of human KGN cell growth in a cell viability assay.

KM12 = assay type: functional, cell-based, Homo sapiens; details: Homo sapiens, KM12;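 also: KM12 cell growth inhibition, read out with a cell viability assay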
Description: SANGER: Inhibition of human KM12 cell growth in a cell viability assay.

LB831-BLC = assay type: functional, cell-based, Homo sapiens; details: Homo sapiens, LB831-BLC;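 also: growth inhibition of LB831-BLC cells, read out with a cell viability assay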
Description: SANGER: Inhibition of human LB831-BLC cell growth in a cell viability assay.

LNCaP-Clone-FGC = assay type: functional, cell-based, Homo sapiens; details: Homo sapiens, LNCaP-Clone-FGC
Description: SANGER: Inhibition of human LNCaP-Clone-FGC cell growth in a cell viability assay.

LS-123 = assay type: functional, cell-based, Homo sapiens; details: Homo sapiens, LS-123
Description: SANGER: Inhibition of human LS-123 cell growth in a cell viability assay.

MC116 = assay type: functional, cell-based; details: Homo sapiens;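 also: growth inhibition of MC116 cells, read out with a cell viability assay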
Description: SANGER: Inhibition of human MC116 cell growth in a cell viability assay.

MDA-MB-231 = assay type: functional, cell-based, Homo sapiens; details: Homo sapiens, MDA-MB-231
Description: SANGER: Inhibition of human MDA-MB-231 cell growth in a cell viability assay.

MFM-223 = assay type: functional, cell-based, Homo sapiens; details: Homo sapiens, MFM-223
Description: SANGER: Inhibition of human MFM-223 cell growth in a cell viability assay.

MOLT-4 = assay type: functional, cell-based; details: Homo sapiens;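 also: growth inhibition of MOLT-4 cells, determined with a cell viability readout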
Description: SANGER: Inhibition of human MOLT-4 cell growth in a cell viability assay.

Mo = assay type: functional, cell-based; details: Homo sapiens
Description: SANGER: Inhibition of human Mo-T cell growth in a cell viability assay.

NCI-H1693 = assay type: functional, cell-based, Homo sapiens; details: Homo sapiens, NCI-H1693;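 also: growth inhibition of the human cell line, read out with a cell viability assay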
Description: SANGER: Inhibition of human NCI-H1693 cell growth in a cell viability assay.

NCI-H2087 = assay type: functional, cell-based, Homo sapiens; details: Homo sapiens, NCI-H2087;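 also: growth inhibition determined with a cell viability readout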
Description: SANGER: Inhibition of human NCI-H2087 cell growth in a cell viability assay.

SNU-5 = assay type: functional, cell-based; details: Homo sapiens;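 also: cell viability readout used to measure growth inhibition in human NCI-SNU-5 cells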
Description: SANGER: Inhibition of human NCI-SNU-5 cell growth in a cell viability assay.

NTERA-2-cl-D1 = assay type: functional, cell-based, Homo sapiens; details: Homo sapiens, NTERA-2-cl-D1;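 also: inhibition of cell growth, measured with a cell viability assay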
Description: SANGER: Inhibition of human NTERA-S-cl-D1 cell growth in a cell viability assay.

OCI-AML2 = assay type: functional, cell-based; details: Homo sapiens;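 also: growth inhibition of OCI-AML2 cells, read out with a cell viability assay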
Description: SANGER: Inhibition of human OCI-AML2 cell growth in a cell viability assay.

RPMI-7951 = assay type: functional, cell-based, Homo sapiens; details: Homo sapiens, RPMI-7951
Description: SANGER: Inhibition of human RPMI-7951 cell growth in a cell viability assay.

SF-539 = assay type: functional, cell-based, Homo sapiens; details: Homo sapiens, SF-539;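 also: Read-out is a cell viability assay, with IC50 reflecting inhibition of cell growth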
Description: SANGER: Inhibition of human SF539 cell growth in a cell viability assay.

SK-MEL-1 = assay type: functional, cell-based; details: Homo sapiens;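 also: growth inhibition of human SK-MEL-1 cells, read out by a cell viability assay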
Description: SANGER: Inhibition of human SK-MEL-1 cell growth in a cell viability assay.

SK-MEL-2 = assay type: functional, cell-based, Homo sapiens; details: Homo sapiens, SK-MEL-2;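 also: growth inhibition of human SK-MEL-2 cells measured with a cell viability assay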
Description: SANGER: Inhibition of human SK-MEL-2 cell growth in a cell viability assay.

SK-MES-1 = assay type: functional, cell-based, Homo sapiens; details: Homo sapiens, SK-MES-1;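 also: growth inhibition of human SK-MES-1 cells, read out with a cell viability assay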
Description: SANGER: Inhibition of human SK-MES-1 cell growth in a cell viability assay.

SK-NEP-1 = assay type: functional, cell-based; details: Homo sapiens;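 also: growth inhibition of human SK-NEP-1 cells, read out by a cell viability assay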
Description: SANGER: Inhibition of human SK-NEP-1 cell growth in a cell viability assay.

T98G = assay type: functional, cell-based, Homo sapiens; details: Homo sapiens, T98G;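 also: growth inhibition of T98G cells, read out by a cell viability assay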
Description: SANGER: Inhibition of human T98G cell growth in a cell viability assay.

8305C = assay type: functional, cell-based, Homo sapiens; details: Homo sapiens, 8305C
Description: SANGER: Inhibition of human 8305C cell growth in a cell viability assay.

A204 = assay type: functional, cell-based, Homo sapiens; details: Homo sapiens, A204;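 also: growth inhibition of human A204 cells, read out with a cell viability assay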
Description: SANGER: Inhibition of human A204 cell growth in a cell viability assay.

A673 = assay type: functional, cell-based, Homo sapiens; details: Homo sapiens, A673;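 also: growth inhibition of human A673 cells, read out through a cell viability assay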
Description: SANGER: Inhibition of human A673 cell growth in a cell viability assay.

ACHN = assay type: functional, cell-based, Homo sapiens; details: Homo sapiens, ACHN;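 also: cell viability read-out used to gauge how strongly growth of human ACHN cells is suppressed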
Description: SANGER: Inhibition of human ACHN cell growth in a cell viability assay.

ASPC1 = assay type: functional, cell-based, Homo sapiens; details: Homo sapiens, ASPC1;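 also: growth inhibition of AsPC-1 cells, read out with a cell viability assay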
Description: SANGER: Inhibition of human AsPC-1 cell growth in a cell viability assay.

BFTC-909 = assay type: functional, cell-based, Homo sapiens; details: Homo sapiens, BFTC-909
Description: SANGER: Inhibition of human BFTC-909 cell growth in a cell viability assay.

BT-20 = assay type: functional, cell-based, Homo sapiens; details: Homo sapiens, BT-20;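 also: cell viability assay measuring suppression of growth in human BT-20 cells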
Description: SANGER: Inhibition of human BT-20 cell growth in a cell viability assay.

C2BBe1 = assay type: functional, cell-based, Homo sapiens; details: Homo sapiens, C2BBe1;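 also: growth inhibition of C2BBe1 cells, read out through a viability assay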
Description: SANGER: Inhibition of human C2BBe1 cell growth in a cell viability assay.

CAL-54 = assay type: functional, cell-based, Homo sapiens; details: Homo sapiens, CAL-54;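 also: growth inhibition of CAL-54 cells, read out by a viability measurement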
Description: SANGER: Inhibition of human CAL-54 cell growth in a cell viability assay.

VM-CUB-1 = assay type: functional, cell-based; details: Homo sapiens;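 also: cell viability assay measuring growth inhibition of the human VM-CUB-1 cell line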
Description: SANGER: Inhibition of human VM-CUB-1 cell growth in a cell viability assay.

YAPC = assay type: functional, cell-based, Homo sapiens; details: Homo sapiens, YAPC;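 also: growth inhibition of YAPC cells, measured with a cell viability assay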
Description: SANGER: Inhibition of human YAPC cell growth in a cell viability assay.

no-10 = assay type: functional, cell-based, Homo sapiens; details: Homo sapiens;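 also: growth inhibition of no-10 cells, read out with a cell viability assay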
Description: SANGER: Inhibition of human no-10 cell growth in a cell viability assay.

CAS-1 = assay type: functional, cell-based, Homo sapiens; details: Homo sapiens, CAS-1;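 also: growth inhibition of CAS-1 cells, measured with a cell viability assay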
Description: SANGER: Inhibition of human CAS-1 cell growth in a cell viability assay.

COc1cc([C@@H]2c3cc4c(cc3[C@@H](O[C@@H]3O[C@@H]5CO[C@@H](C)O[C@H]5[C@H](O)[C@H]3O)[C@H]3COC(=O)[C@H]23)OCO4)cc(OC)c1O [ETOPOSIDE]
IC50 (CW-2): > 16 µM
IC50 (D-336MG): > 16 µM
IC50 (DOHH-2): 0.347 µM
IC50 (DOK): > 16 µM
IC50 (EM-2): 1.58 µM
IC50 (EW-3): 14.3 µM
IC50 (FaDu): 1.28 µM
IC50 (G-402): 0.898 µM
IC50 (GT3TKB): 0.406 µM
IC50 (HCC1419): > 16 µM
IC50 (HCC2218): > 16 µM
IC50 (HCT-116): 1.01 µM
IC50 (HEC-1): 2.37 µM
IC50 (HGC-27): 0.102 µM
IC50 (HO-1-N-1): 2.38 µM
IC50 (HT-3): 1.13 µM
IC50 (HuP-T3): > 16 µM
IC50 (KGN): 0.352 µM
IC50 (KM12): 1.88 µM
IC50 (LB831-BLC): 6.15 µM
IC50 (LNCaP-Clone-FGC): > 16 µM
IC50 (LS-123): 4.02 µM
IC50 (MC116): > 16 µM
IC50 (MDA-MB-231): 9.09 µM
IC50 (MFM-223): > 16 µM
IC50 (MOLT-4): 0.418 µM
IC50 (Mo): > 16 µM
IC50 (NCI-H1693): > 16 µM
IC50 (NCI-H2087): 0.763 µM
IC50 (SNU-5): 7.92 µM
IC50 (NTERA-2-cl-D1): 0.025 µM
IC50 (OCI-AML2): 0.559 µM
IC50 (RPMI-7951): 2.29 µM
IC50 (SF-539): 1.61 µM
IC50 (SK-MEL-1): > 16 µM
IC50 (SK-MEL-2): > 16 µM
IC50 (SK-MES-1): 0.808 µM
IC50 (SK-NEP-1): 1.9 µM
IC50 (T98G): 8.82 µM
IC50 (8305C): 2.32 µM
IC50 (A204): 0.232 µM
IC50 (A673): 2.16 µM
IC50 (ACHN): 0.839 µM
IC50 (ASPC1): > 16 µM
IC50 (BFTC-909): 1.16 µM
IC50 (BT-20): 4.58 µM
IC50 (C2BBe1): > 16 µM
IC50 (CAL-54): 8.92 µM
IC50 (VM-CUB-1): 2.58 µM
IC50 (YAPC): > 16 µM
IC50 (no-10): 3.49 µM
IC50 (CAS-1): > 16 µM

O=C1N=C(NCc2cccs2)S/C1=C\c1ccc2ncccc2c1
IC50 (CW-2): > 5 µM
IC50 (D-336MG): > 5 µM
IC50 (DOHH-2): > 5 µM
IC50 (DOK): > 5 µM
IC50 (EM-2): > 5 µM
IC50 (EW-3): > 5 µM
IC50 (FaDu): > 5 µM
IC50 (G-402): > 5 µM
IC50 (GT3TKB): > 5 µM
IC50 (HCC1419): > 5 µM
IC50 (HCC2218): > 5 µM
IC50 (HCT-116): > 5 µM
IC50 (HEC-1): > 5 µM
IC50 (HGC-27): > 5 µM
IC50 (HO-1-N-1): > 5 µM
IC50 (HT-3): > 5 µM
IC50 (HuP-T3): > 5 µM
IC50 (KGN): > 5 µM
IC50 (KM12): > 5 µM
IC50 (LB831-BLC): > 5 µM
IC50 (LNCaP-Clone-FGC): > 5 µM
IC50 (LS-123): > 5 µM
IC50 (MC116): > 5 µM
IC50 (MDA-MB-231): > 5 µM
IC50 (MFM-223): > 5 µM
IC50 (MOLT-4): > 5 µM
IC50 (Mo): > 5 µM
IC50 (NCI-H1693): > 5 µM
IC50 (NCI-H2087): > 5 µM
IC50 (SNU-5): > 5 µM
IC50 (NTERA-2-cl-D1): > 5 µM
IC50 (OCI-AML2): > 5 µM
IC50 (RPMI-7951): > 5 µM
IC50 (SF-539): > 5 µM
IC50 (SK-MEL-1): > 5 µM
IC50 (SK-MEL-2): > 5 µM
IC50 (SK-MES-1): > 5 µM
IC50 (SK-NEP-1): > 5 µM
IC50 (T98G): 1.37 µM
IC50 (8305C): > 5 µM
IC50 (A204): > 5 µM
IC50 (A673): > 5 µM
IC50 (ACHN): > 5 µM
IC50 (ASPC1): > 5 µM
IC50 (BFTC-909): > 5 µM
IC50 (BT-20): > 5 µM
IC50 (C2BBe1): > 5 µM
IC50 (CAL-54): > 5 µM
IC50 (VM-CUB-1): > 5 µM
IC50 (YAPC): > 5 µM
IC50 (no-10): > 5 µM
IC50 (CAS-1): > 5 µM
